The record followed here is ChEMBL document CHEMBL3046544, “Inhibitory Activity of N-Substituted-2-piperidones with a 1, 4-Benzodioxan Ring on Germination of Barnyardgrass” (J Pestic Sci, 2001).

pIC50: −log10 of the molar value.

As usually defined, the inhibition is the relative decrease from the control value, in per cent. As a reminder, the pIC50 is the negative decadic logarithm of the IC50, by convention in mol/L.

Assay [1] has as its system Echinochloa esculenta. The assay can be described thus: Herbicidal activity against Echinochloa esculenta assessed as inhibition of seed germination at 1 nM after 5 days relative to control. In kind it is functional. Conditions: 120 h.
Assay [2] deals with Echinochloa esculenta. Briefly: Herbicidal activity against Echinochloa esculenta assessed as inhibition of seed germination at 10 nM after 5 days relative to control. Particulars: 120 h. In kind it is functional.
Assay [3] deals with Echinochloa esculenta. Briefly: Herbicidal activity against Echinochloa esculenta assessed as inhibition of seed germination at 100 nM after 5 days relative to control. In kind it is functional. Conditions: 120 h.
In assay [4] the test system is Echinochloa esculenta. Briefly: Herbicidal activity against Echinochloa esculenta assessed as inhibition of seed germination at 1000 nM after 5 days relative to control. In kind it is functional. Particulars: 120 h.
The test system of assay [5] is Oryza sativa. Briefly: Herbicidal activity against Oryza sativa (rice) assessed as inhibition of seed germination at > 90 nM after 7 days relative to control. In kind it is functional, organism-based. Particulars: 168 h.
Assay [6] has as its system Oryza sativa. Briefly: Herbicidal activity against Oryza sativa (rice) assessed as inhibition of seed germination after 7 days relative to control. In kind it is functional, organism-based. Particulars: 168 h.
Assay [7] relates to Echinochloa esculenta. Briefly: Herbicidal activity against Echinochloa esculenta assessed as inhibition of seed germination after 5 days relative to control. In kind it is functional, organism-based. Conditions: 120 h.
In assay [8] the test system is Echinochloa esculenta. The assay can be described thus: Herbicidal activity against Echinochloa esculenta assessed as inhibition of seed germination at 0.1 nM after 5 days relative to control. In kind it is functional. Conditions: 120 h.

Regarding `CC(C)C(O)C1CCCN(Cc2ccccc2)C1=O` (mixture of isomers), the inhibition at 0.001 µM in the assay with Echinochloa esculenta [1] was below 49%. Further, the inhibition at 0.01 µM in the assay with Echinochloa esculenta [2] was below 49%. Besides, the inhibition at 0.1 µM with Echinochloa esculenta [3] is below 49%. In the assay with Echinochloa esculenta [4], the inhibition at 1 µM was below 49%.

For the compound `CC(C)CCC(O)C1CCCN(Cc2ccccc2)C1=O` (mixture of isomers), the inhibition at 0.001 µM in the assay with Echinochloa esculenta [1] was below 49%. For the same compound, the inhibition at 0.01 µM in the assay with Echinochloa esculenta [2] is below 49%. Also, the inhibition at 0.1 µM in the assay on Echinochloa esculenta [3] was determined as 50%. In the assay on Echinochloa esculenta [4], the inhibition at 1 µM came out at 50%.

On to `O=C1C(C(O)C2CCCCC2)CCCN1Cc1ccccc1` (mixture of isomers), for which, in the assay with Echinochloa esculenta [1], the inhibition at 0.001 µM was below 49%. For the same compound, in the assay with Echinochloa esculenta [2], the inhibition at 0.01 µM was below 49%. In the assay on Echinochloa esculenta [3], the inhibition at 0.1 µM is below 49%. The inhibition at 1 µM in the assay on Echinochloa esculenta [4] is below 49%.

In the case of `O=C1C(C(O)c2ccccc2)CCCN1Cc1ccccc1` (mixture of isomers), the inhibition at 0.001 µM with Echinochloa esculenta [1] was below 49%. The inhibition at 0.01 µM in the assay with Echinochloa esculenta [2] was below 49%. For the same compound, the inhibition at 0.1 µM in the assay with Echinochloa esculenta [3] was below 49%. For the same compound, the inhibition at 1 µM with Echinochloa esculenta [4] was above 90%.

In the case of `O=C1C(C(O)C/C=C/c2ccccc2)CCCN1Cc1ccccc1` (mixture of isomers), in the assay with Echinochloa esculenta [1], the inhibition at 0.001 µM was below 49%. For the same compound, the inhibition at 0.01 µM in the assay on Echinochloa esculenta [2] was below 49%. Also, the inhibition at 0.1 µM in the assay with Echinochloa esculenta [3] was 50%. In the assay on Echinochloa esculenta [4], the inhibition at 1 µM turned out to be 50%.

Take `Cc1ccccc1C(O)C1CCCN(Cc2ccccc2)C1=O` (mixture of isomers): the inhibition at 0.001 µM with Echinochloa esculenta [1] is below 49%. Besides, the inhibition at 0.01 µM in the assay with Echinochloa esculenta [2] is below 49%. In the assay on Echinochloa esculenta [3], the inhibition at 0.1 µM is below 49%. Moreover, in the assay on Echinochloa esculenta [4], the inhibition at 1 µM is above 90%.

For `Cc1cccc(C(O)C2CCCN(Cc3ccccc3)C2=O)c1` (mixture of isomers), in the assay on Echinochloa esculenta [1], the inhibition at 0.001 µM is below 49%. For the same compound, the inhibition at 0.01 µM with Echinochloa esculenta [2] is below 49%. Also, the inhibition at 0.1 µM in the assay on Echinochloa esculenta [3] is below 49%. Also, the inhibition at 1 µM in the assay on Echinochloa esculenta [4] is above 90%.

As for `Cc1ccc(C(O)C2CCCN(Cc3ccccc3)C2=O)cc1` (mixture of isomers), in the assay on Echinochloa esculenta [1], the inhibition at 0.001 µM was below 49%. Moreover, the inhibition at 0.01 µM in the assay with Echinochloa esculenta [2] was below 49%. Further, the inhibition at 0.1 µM in the assay with Echinochloa esculenta [3] is below 49%. Moreover, in the assay on Echinochloa esculenta [4], the inhibition at 1 µM is above 90%.

In the case of `COc1ccccc1C(O)C1CCCN(Cc2ccccc2)C1=O` (mixture of isomers), the inhibition at 0.001 µM in the assay on Echinochloa esculenta [1] was below 49%. Further, the inhibition at 0.01 µM in the assay on Echinochloa esculenta [2] was below 49%. In the assay on Echinochloa esculenta [3], the inhibition at 0.1 µM was below 49%. Further, in the assay with Echinochloa esculenta [4], the inhibition at 1 µM was found to be 50%.

Take `COc1cccc(C(O)C2CCCN(Cc3ccccc3)C2=O)c1` (mixture of isomers): the inhibition at 0.001 µM with Echinochloa esculenta [1] was below 49%. The inhibition at 0.01 µM in the assay on Echinochloa esculenta [2] was below 49%. Also, in the assay with Echinochloa esculenta [3], the inhibition at 0.1 µM was below 49%. Moreover, the inhibition at 1 µM in the assay with Echinochloa esculenta [4] was below 49%.

As to `COc1ccc(C(O)C2CCCN(Cc3ccccc3)C2=O)cc1` (mixture of isomers), the inhibition at 0.001 µM in the assay on Echinochloa esculenta [1] was below 49%. Also, in the assay with Echinochloa esculenta [2], the inhibition at 0.01 µM is below 49%. Moreover, the inhibition at 0.1 µM in the assay on Echinochloa esculenta [3] is below 49%. Also, in the assay on Echinochloa esculenta [4], the inhibition at 1 µM is above 90%.

`O=C1C(C(O)c2ccccc2Cl)CCCN1Cc1ccccc1` (mixture of isomers): in the assay with Echinochloa esculenta [1], the inhibition at 0.001 µM is below 49%. Further, the inhibition at 0.01 µM in the assay with Echinochloa esculenta [2] was below 49%. Also, the inhibition at 0.1 µM in the assay with Echinochloa esculenta [3] is below 49%. For the same compound, the inhibition at 1 µM in the assay with Echinochloa esculenta [4] was above 90%.

As to `O=C1C(C(O)c2ccc3c(c2)OCCO3)CCCN1Cc1ccccc1` (mixture of isomers), the pIC50 was 8.00 in the assay with Oryza sativa [5], below 7.05 with Oryza sativa [6] and 8.06 in the assay with Echinochloa esculenta [7]. Moreover, the inhibition at 0.001 µM in the assay on Echinochloa esculenta [1] is below 49%. Further, the inhibition at 0.01 µM with Echinochloa esculenta [2] is above 90%. In addition, the inhibition at 0.1 µM with Echinochloa esculenta [3] is above 90%. The inhibition at 1 µM in the assay with Echinochloa esculenta [4] is above 90%.

For the compound `O=C1C(C(O)c2ccc3c(c2)OCCO3)CCCN1CC=C(c1ccccc1)c1ccccc1` (mixture of isomers), the inhibition at 0.0001 µM in the assay on Echinochloa esculenta [8] was below 49%. Besides, the inhibition at 0.001 µM in the assay on Echinochloa esculenta [1] is below 49%. For the same compound, the inhibition at 0.01 µM in the assay with Echinochloa esculenta [2] was above 90%. Further, the inhibition at 0.1 µM with Echinochloa esculenta [3] was above 90%. In the assay with Echinochloa esculenta [4], the inhibition at 1 µM is above 90%.

Regarding `O=C1C(C(O)c2ccc3c(c2)OCCO3)CCCN1C/C=C/c1ccccc1` (mixture of isomers), the values for the pIC50 in the assay with Oryza sativa [5], in the assay with Oryza sativa [6] and in the assay with Echinochloa esculenta [7] were 7.60, below 7.05 and 8.85, respectively. Also, the inhibition at 0.0001 µM in the assay with Echinochloa esculenta [8] is below 49%. Further, in the assay with Echinochloa esculenta [1], the inhibition at 0.001 µM was below 49%. In the assay with Echinochloa esculenta [2], the inhibition at 0.01 µM was above 90%. In the assay with Echinochloa esculenta [3], the inhibition at 0.1 µM is above 90%. For the same compound, the inhibition at 1 µM in the assay with Echinochloa esculenta [4] is above 90%.

For the compound `O=C1C(C(O)c2ccc3c(c2)OCCO3)CCCN1/C=C/c1ccccc1` (mixture of isomers), in the assay with Echinochloa esculenta [8], the inhibition at 0.0001 µM is below 49%. The inhibition at 0.001 µM in the assay on Echinochloa esculenta [1] was below 49%. Besides, the inhibition at 0.01 µM in the assay with Echinochloa esculenta [2] turned out to be 50%. For the same compound, the inhibition at 0.1 µM with Echinochloa esculenta [3] is above 90%. In addition, the inhibition at 1 µM in the assay with Echinochloa esculenta [4] was above 90%.

As for `O=C1C(C(O)c2ccc3c(c2)OCCO3)CCCN1c1ccccc1` (mixture of isomers), in the assay with Echinochloa esculenta [8], the inhibition at 0.0001 µM was below 49%. Also, the inhibition at 0.001 µM in the assay with Echinochloa esculenta [1] is below 49%. Besides, in the assay with Echinochloa esculenta [2], the inhibition at 0.01 µM was below 49%. Also, in the assay on Echinochloa esculenta [3], the inhibition at 0.1 µM was below 49%. The inhibition at 1 µM with Echinochloa esculenta [4] was below 49%.

In the case of `C=CCN1CCCC(C(O)c2ccc3c(c2)OCCO3)C1=O` (mixture of isomers), the inhibition at 0.0001 µM in the assay with Echinochloa esculenta [8] is below 49%. The inhibition at 0.001 µM in the assay with Echinochloa esculenta [1] was below 49%. Further, the inhibition at 0.01 µM in the assay with Echinochloa esculenta [2] is below 49%. In addition, the inhibition at 0.1 µM with Echinochloa esculenta [3] is below 49%. The inhibition at 1 µM in the assay on Echinochloa esculenta [4] was determined as 50%.

As for `O=C1NCCCC1C(O)c1ccc2c(c1)OCCO2` (mixture of isomers), the inhibition at 0.0001 µM in the assay with Echinochloa esculenta [8] is below 49%. In addition, the inhibition at 0.001 µM with Echinochloa esculenta [1] is below 49%. Also, the inhibition at 0.01 µM in the assay on Echinochloa esculenta [2] was below 49%. Further, the inhibition at 0.1 µM in the assay with Echinochloa esculenta [3] is below 49%. In addition, the inhibition at 1 µM in the assay with Echinochloa esculenta [4] was above 90%.

`O=C1[C@H]([C@@H](O)c2ccc3c(c2)OCCO3)CCCN1C/C=C/c1ccccc1` (relative stereo): the negative-log IC50 (pIC50) in the assay with Oryza sativa [6] and in the assay with Echinochloa esculenta [7] was below 6.00 throughout.

As to `O=C1[C@@H]([C@@H](O)c2ccc3c(c2)OCCO3)CCCN1C/C=C/c1ccccc1` (relative stereo), the pIC50 with Oryza sativa [6] was 8.09; in the assay on Echinochloa esculenta [7], 9.10.

In the case of `O=C1[C@H]([C@@H](O)c2ccc3c(c2)OCCO3)CCCN1Cc1ccccc1` (relative stereo), the pIC50 with Oryza sativa [6] and in the assay on Echinochloa esculenta [7] was below 6.00 each time.

For `O=C1[C@@H]([C@@H](O)c2ccc3c(c2)OCCO3)CCCN1Cc1ccccc1` (relative stereo), the pIC50 with Oryza sativa [5] was 7.52; in the assay on Oryza sativa [6] it was below 7.05; in the assay with Echinochloa esculenta [7] it was 8.35.
